Consider two compounds from patent publication US20230339991A1, “HYPOXIA-ACTIVATED DNA ALKYLATING AGENT AND MEDICAL USE THEREOF” (ASCENTAWITS PHARMACEUTICALS, LTD., priority 2020, published 2023).

Molecules are shown by their SMILES. Like-named read-outs stand apart in the source and are kept apart here.

The test system of one data set is NCI-H522. The data set is described as follows: Cytotoxicity, NSCLC cell line NCI-H522. In kind it is cell-based. Particulars: Homo sapiens. On the procedure:
(§1) Compounds were exposed at various concentrations for 72 hours, followed by a wash step. Fresh medium was added for growth. The cell was stained to determine the cell survival rate and compared with controls treated with medium only.
(§2) In particular, exponentially grown cells were inoculated in 96-well plates at a density of 2×10^3 cells/100 μl/well and incubated for 24 hours at 37° C. and under the conditions of 5% CO2, 95% air and 100% relative humidity before addition of 99 μl of culture solution. The compounds were dissolved in 100% DMSO at 200 times of the desired final test concentration. When the drug was added, an aliquot of 1 μl of the compound at the specified concentration was added to microwells already containing 199 μl of medium to obtain the reported final drug concentration. After adding the drug, plates were incubated for an additional 72 hours at 37° C., 5% CO2, 95% air and 100% relative humidity. The cell assay plate was left to balance for 30 minutes at room temperature and 100 μL of medium was removed from per well. 100 μl CTG reagent (CelltiterGlo kit) was added into each well. The plate was placed on a fast shaker and shaked for 2 min, and kept in dark at room temperature for 30 min. The chemiluminescence signal value was read by Envision instrument. […]

A further data set concerns KP-4. The data set is described as follows: Cytotoxicity, pancreatic cancer PA cells KP-4. Type of data set: cell-based. Particulars: Homo sapiens. The protocol:
as §1, §2

Data set [1] concerns human lung cancer NCI-H460 subcutaneous xenograft. The data set is described as follows: Human lung cancer NCI-H460 subcutaneous xenograft model, compound A. In kind it is in vivo, BALB/c nude mice. On the procedure: BALB/c nude mice were subcutaneously inoculated with human lung cancer NCI-H460 cells to establish human lung cancer subcutaneous transplantation tumor model. […] The test drug compound A 40 mg/kg group was administered by tail vein injection once every three weeks for 2 times, and observed for one week after the second administration. The test drug compound A 20 mg/kg group was administered by intraperitoneal injection once a day for 5 days continuously, and observed for 24 days. […] The administration dosage of compound A was determined according to the MTD test.
The tumor volumes of mice from each group were measured at different days and the average values were taken.

Data set [2] deals with HuPrime model GA6201 human gastric cancer subcutaneous transplantation PDX tumor. The data set is described as follows: GA6201 human gastric cancer subcutaneous PDX model. In kind it is in vivo, BALB/c nude mice. The protocol: Then the dose was changed to 10 mg/kg by intraperitoneal injection administration daily for 4 days (QD×4, Day14-Day17). The dose and mode of administration were then changed to 20 mg/kg via tail vein injection for one day (QD×1, Day18). After drug withdrawal for 10 days, the dose was changed again, and 50 mg/kg was administered via tail vein injection once a week for two weeks QW×2 (Day28, Day35).
The tumor volumes of mice from different groups were measured at different days and the average values were obtained.

The next data set deals with NCIH1755. The data set is described as follows: Cytotoxicity, NSCLC cell line NCIH1755. Conditions: Homo sapiens, NCI-H1755. Type of data set: cell-based. The protocol: as §1, §2
In another data set the test system is Panc 02.03. Description: Cytotoxicity, pancreatic cancer PA cells Panc 02.03. Type of data set: cell-based. Conditions: Homo sapiens. The protocol: as §1, §2
In a further data set the test system is AsPC-1. The data set is described as follows: Cytotoxicity, pancreatic cancer PA cells AsPC-1. Type of data set: cell-based. Particulars: Homo sapiens, ASPC1. The protocol: as §1, §2
In a further data set the test system is Panc 10.05. Description: Cytotoxicity, pancreatic cancer PA cells Panc 10.05. In kind it is cell-based. Conditions: Homo sapiens, Panc1005. On the procedure:
as §1, §2

For the next data set, the system named is NCI-H1792. The data set is described as follows: Cytotoxicity, NSCLC cell line NCI-H1792. In kind it is cell-based. Conditions: Homo sapiens. On the procedure:
as §1, §2

The test system of the next data set is CFPAC1. The data set is described as follows: Cytotoxicity, pancreatic cancer PA cells CFPAC1. Type of data set: cell-based. Conditions: Homo sapiens, CFPAC-1. The protocol: as §1, §2
Data set [3] is described as follows: Maximal tolerance dose (MTD) test, compound C, two cycles. Type of data set: in vivo, ICR mice. Conditions: both sexes, mouse, in vivo; intravenous; ICR mice; read-out: maximal tolerance dose (MTD), overall. The protocol: (§3) 18 ICR mice, 9 females/9 males, were randomly divided into compound C 10 mg/kg group, 20 mg/kg group and 40 mg/kg group according to gender and body weight, with 3 females/3 males in each group. […] It was administered once a day for 5 continuous days, and recovered for 1 week after the last administration. […] To explore the maximal tolerance dose, two cycles of administration were required. The dosage was adjusted and the administration was continued for 5 days.
(§4) The animals were closely observed for 2 h after administration on the administration day and once a day in the morning and once in the afternoon on the non-administration day. Body weight and dietary intake were measured twice a week during the test period. Dead animals and all surviving animals after 14 days from the last administration were subjected to autopsy. The autopsy was performed on the pathological organs, and histopathological examination of the pathological organs was performed.

In a further data set the test system is ICR mice. The description is as above. Type of data set: in vivo. Particulars: for maximal tolerance dose: intravenous, ICR mice. On the procedure: as §3, §4
In data set [4] the test system is human lung cancer NCI-H460-Luc2 intracranial transplantation tumor. Conditions: for mean biofluorescence value / TGI: 11 days after grouping. The protocol: BALB/c nude mice were inoculated intracranially with human lung cancer NCI-H460-Luc2 cells to establish human lung cancer intracranial transplantation tumor model. […] The relative tumor inhibition rate TGI (%) was calculated based on tumor biofluorescence value and the efficacy was evaluated.

With `O=[N+]([O-])c1ccc(C(OP(=O)(N2CC2)N2CC2)C(F)(F)F)c2ccccc12` (racemic) [Compound A], the IC50 (commonly the point on the concentration scale where inhibition reaches its midpoint) was 19.2 µM in the data set on NCI-H522; 6.1 µM in the data set with KP-4; 6.46 µM with NCIH1755; 45.7 µM with Panc 02.03; 12.6 µM with AsPC-1; 27.7 µM in the data set with Panc 10.05. Also, the 50% inhibitory concentration (IC50) is 4.79 µM with NCI-H1792 and 2.86 µM in the data set on CFPAC1. Further, the “relative tumor inhibition rate TGI (%)” value in data set [1] (40 mg/kg, Q3W×2, IV, Day31) is given as 66.87%. For the same compound, the tumor volume in data set [1] (Test Group 7, 40 mg/kg IV, day 10) came to 184.06 mm^3; in data set [1] (Test Group 7, 40 mg/kg IV, day 14) it was 153.75 mm^3; in [1] (Test Group 7, 40 mg/kg IV, day 17), 159.72 mm^3; in data set [1] (Test Group 7, 40 mg/kg IV, day 21) it was 218.13 mm^3; in data set [1] (Test Group 7, 40 mg/kg IV, day 24) it was 291.07 mm^3; in data set [1] (Test Group 7, 40 mg/kg IV, day 28) it was 520.17 mm^3. The tumor volume in data set [1] (Test Group 7, 40 mg/kg IV, day 31) was determined as 580.70 mm^3; in [1] (Test Group 7, 40 mg/kg IV, day 35) it was 447.32 mm^3; in [1] (Test Group 7, 40 mg/kg, Q3W×2, IV, day 7), 143.84 mm^3; in data set [1] (Test Group 8, 20 mg/kg IP, day 10) it was 173.09 mm^3; in data set [1] (Test Group 8, 20 mg/kg IP, day 14) it was 152.99 mm^3; in data set [1] (Test Group 8, 20 mg/kg IP, day 17), 130.06 mm^3. Besides, the tumor volume is 129.66 mm^3 in data set [1] (Test Group 8, 20 mg/kg IP, day 21); 164.63 mm^3 in data set [1] (Test Group 8, 20 mg/kg IP, day 24); 272.20 mm^3 in [1] (Test Group 8, 20 mg/kg IP, day 28); 447.50 mm^3 in data set [1] (Test Group 8, 20 mg/kg IP, day 31); 651.58 mm^3 in [1] (Test Group 8, 20 mg/kg IP, day 35); 144.63 mm^3 in data set [1] (Test Group 8, 20 mg/kg, QD×5×1 week, IP, day 7). The tumor volume was 121.79 mm^3 in data set [2] (Group 06, 5-50 mg/kg regimen, day 3); 153.46 mm^3 in data set [2] (Group 06, 5-50 mg/kg regimen, day 10); 191.17 mm^3 in data set [2] (Group 06, 5-50 mg/kg regimen, day 14); 280.86 mm^3 in data set [2] (Group 06, 5-50 mg/kg regimen, day 28); 300.46 mm^3 in data set [2] (Group 06, 5-50 mg/kg regimen, day 42); 94.24 mm^3 in [2] (Group 06, 5 then 10 mg/kg i.p., 20 and 50 mg/kg i.v. (Table 10), day 0).

Take `O=[N+]([O-])c1ccc([C@@H](OP(=O)(N2CC2)N2CC2)C(F)(F)F)c2ccccc12` (single isomer, unassigned) [Compound C]: the MTD – broadly, the largest dose that counted as tolerated – in [3] was 20 to 40 mg/kg. The “animal deaths after first cycle” value with ICR mice (10, 20 and 40 mg/kg i.v., continuous administration for 5 days) was “no animal death”. For the same compound, the animal deaths in the data set on ICR mice (10/80 mg/kg group (first cycle 10, second cycle 80 mg/kg)) is given as 1/6; in the data set on ICR mice (20/60 mg/kg group) it was 3/6; in the data set with ICR mice (40/40 mg/kg group) it was 1/6. The maximal tolerance dose with ICR mice (first cycle) is listed as over 40 mg/kg; in the data set on ICR mice (second cycle) it was under 40 mg/kg. Moreover, the mean biofluorescence value in [4] (10 mg/kg tail vein QW×3) worked out at 7.07E+05 photon/second; in data set [4] (20 mg/kg tail vein QW×3), 1.79E+05 photon/second; in [4] (40 mg/kg tail vein QW×3) it was 1.04E+05 photon/second. The TGI in data set [4] (10 mg/kg tail vein) stood at 99.82%; in data set [4] (20 mg/kg tail vein) it was 100.03%; in [4] (40 mg/kg tail vein) it was 100.05%. Besides, the tolerability result in data set [4] (single drug, 10-40 mg/kg) is given as “well tolerated”.
